{"source": "patent US4778824A", "about": "“Method for suppressing a transplantation immunity and treating an allergic disease and an autoimmune disease” (Zaidan Hojin Biseibutsu Kagaku Kenkyu Kai, priority 1984, dated 1988)", "key": {"IgE antibody production": {"system": "IgE antibody production", "assay": "Inhibition of IgE antibody production against egg albumin (passive cutaneous anaphylaxis titer)", "assay_type": "in vivo, BALB/c mice", "conditions": "50 mg/kg/day i.p., ± S.D.", "procedure": "BALB/c mice (7 wk old, female) were challenged by intraperitoneal administration of 10 μg of egg albumin together with 4 mg of aluminum hydroxide gel. Thereafter, the mice were intraperitoneally administered 50 mg/kg/day of the test compound in accordance with the schedules shown in Table 5. After the challenge, blood was drawn from the fundus of each mouse at 10-day intervals for serum collection. The antibody titer of IgE in the serum was determined by passive cutaneous anaphylaxis as follows. Fischer 344 rats (female, 10 wk old) were injected with 0.05 ml of a diluted serum into the dorsal skin. Four hours later, 1 mg of egg albumin and 0.5 ml of 1% Evans blue were injected into the tail vein, and the final serum dilution that produced a blue spot of a diameter of at least 5 mm 30 minutes after the intravenous injection was used as a measure of the antibody titer."}, "[1]": {"system": "Skin allograft rejection (SHR to Fischer rats)", "assay": "Inhibition of rejection of skin allograft", "assay_type": "in vivo", "conditions": "± S.D.", "from_the_text": "In the next place, the present inventors conducted a skin graft test with rats. In accordance with the method of Denham et al. (Denham et al., International Archives of Allergy and Applied Immunology, vol. 62, pp. 443-458, 1980), the skin of the tail of SHR rats was peeled and allografted onto Fischer rats. […] The inhibitory action of spergualin on tissue rejections is expected to manifest itself not only in skin transplantation but also in the transplantation of such organs as the kidney, heart, spleen, lung, liver, bone marrow and endocrine organs.\nSkin sections (5×10 mm) were peeled from the tails of SHR rats (female, 10 wk old) and transplanted to Fischer rats (female, 10 wk old) on the back. Varying doses of spergualin were administered intraperitoneally for a consecutive period of 10 or 20 days starting on the day following the transplantation. Complete necrosis of the graft was used as a measure of rejection and the inhibitory action of the compound was evaluated in terms of how long the rejection was postponed. […] The longer the period of administration, the greater the inhibitory action."}, "[2]": {"system": "graft-versus-host disease", "assay": "Delay of graft-versus-host disease in irradiated CBA mice transplanted with C57BL/6 bone marrow cells and spleen cells", "assay_type": "in vivo", "conditions": "Donor C57BL/6, 10 days", "procedure": "Female CBA mice of 9 week-old and female C57BL/6 mice of 9 week-old were used. A group consisted of 10 mice. Bone marrow cells (10^7) and spleen cells (5×10^6) from CBA mice and C57BL/6 mice were injected i.v. into the whole body irradiation (850 rad) CBA mice. Spergualin was administered i.p. once a day for 10 days starting on one day after the injection of bone marrow cells and spleen cells. The data is indicated as the median survival time."}, "[3]": {"system": "acute experimental allergic encephalomyelitis", "assay": "Effect on acute experimental allergic encephalomyelitis", "assay_type": "in vivo, strain 13 guinea pigs", "conditions": "2 weeks, with S.D.", "procedure": "Male strain 13 guinea pigs were used. A group consisted of 5 guinea pigs. An aqueous suspension of 50% syngeneic spinal cord homogenate was emulsified in an equal volume of complete Freund's adjuvant containing M. tuberculosis at 20 mg/ml. The antigen emulsion (0.1 ml) was injected both hindfootpads of a guinea pig. Spergualin was administered i.p. for 2 weeks at 0.78 and 1.56 mg/kg."}}, "note": "Counter-ions that a name gives are not always drawn.", "data": [{"smiles": "N=C(N)NCCCCC(O)CC(=O)NC(O)C(=O)NCCCCNCCCN", "note": "(stereo not shown) [spergualin (trihydrochloride)]", "values": [{"measurement": "IgE antibody titer, 10 days", "setting": "IgE antibody production; days 1-8 after challenge", "result": "13±33", "unit": "dilutions"}, {"measurement": "IgE antibody titer, 20 days", "setting": "IgE antibody production; days 1-8 after challenge", "result": "60±31", "unit": "dilutions"}, {"measurement": "IgE antibody titer, 30 days", "setting": "IgE antibody production; days 1-8 after challenge", "result": "320±0", "unit": "dilutions"}, {"measurement": "IgE antibody titer, 40 days", "setting": "IgE antibody production; days 1-8 after challenge", "result": "320±0", "unit": "dilutions"}, {"measurement": "IgE antibody titer, 10 days", "setting": "IgE antibody production; days 1-16 after challenge", "result": "0±0", "unit": "dilutions"}, {"measurement": "IgE antibody titer, 20 days", "setting": "IgE antibody production; days 1-16 after challenge", "result": "8±9", "unit": "dilutions"}, {"measurement": "IgE antibody titer, 30 days", "setting": "IgE antibody production; days 1-16 after challenge", "result": "80±120", "unit": "dilutions"}, {"measurement": "IgE antibody titer, 40 days", "setting": "IgE antibody production; days 1-16 after challenge", "result": "200±131", "unit": "dilutions"}, {"measurement": "IgE antibody titer, 10 days", "setting": "IgE antibody production; days 9-16 after challenge", "result": "120±98", "unit": "dilutions"}, {"measurement": "IgE antibody titer, 20 days", "setting": "IgE antibody production; days 9-16 after challenge", "result": "110±106", "unit": "dilutions"}, {"measurement": "IgE antibody titer, 30 days", "setting": "IgE antibody production; days 9-16 after challenge", "result": "320±0", "unit": "dilutions"}, {"measurement": "IgE antibody titer, 40 days", "setting": "IgE antibody production; days 9-16 after challenge", "result": "480±392", "unit": "dilutions"}, {"measurement": "Average No. of days before rejection", "setting": "[1]; Run 1, 6.25 mg/kg/day i.p., days 1-10", "result": "10.2 ± 2.6", "unit": "days"}, {"measurement": "Average No. of days before rejection", "setting": "[1]; Run 1, 12.5 mg/kg/day i.p., days 1-10", "result": "13.0 ± 4.2", "unit": "days"}, {"measurement": "Average No. of days before rejection", "setting": "[1]; Run 1, 25.0 mg/kg/day i.p., days 1-10", "result": "14.9 ± 6.9", "unit": "days"}, {"measurement": "Average No. of days before rejection", "setting": "[1]; Run 1, 50.0 mg/kg/day i.p., days 1-10", "result": "17.0 ± 3.2", "unit": "days"}, {"measurement": "Average No. of days before rejection", "setting": "[1]; Run 2, 25.0 mg/kg/day i.p., days 1-10", "result": "15.0 ± 5.2", "unit": "days"}, {"measurement": "Average No. of days before rejection", "setting": "[1]; Run 2, 25.0 mg/kg/day i.p., days 1-20", "result": "31.0 ± 1.9", "unit": "days"}, {"measurement": "80-day survivors, Survivors/Total", "setting": "[2]; 3.13 mg/kg i.p. once a day", "result": "2/10"}, {"measurement": "MST (median survival time)", "setting": "[2]; 3.13 mg/kg i.p. once a day", "result": 33.0, "unit": "days"}, {"measurement": "80-day survivors, Survivors/Total", "setting": "[2]; 6.25 mg/kg i.p. once a day", "result": "3/10"}, {"measurement": "MST (median survival time)", "setting": "[2]; 6.25 mg/kg i.p. once a day, P < 0.05", "result": 45.3, "unit": "days"}, {"measurement": "80-day survivors, Survivors/Total", "setting": "[2]; 12.5 mg/kg i.p. once a day", "result": "4/10"}, {"measurement": "MST (median survival time)", "setting": "[2]; 12.5 mg/kg i.p. once a day, P < 0.01", "result": 55.0, "unit": "days"}, {"measurement": "80-day survivors, Survivors/Total", "setting": "[2]; 25.0 mg/kg i.p. once a day", "result": "9/10"}, {"measurement": "MST (median survival time)", "setting": "[2]; 25.0 mg/kg i.p. once a day, P < 0.01", "result": "> 80.0", "unit": "days"}, {"measurement": "Mean survival time", "setting": "[3]; 0.78 mg/kg i.p.", "result": "15.2 ± 1.8", "unit": "days"}, {"measurement": "Mean survival time", "setting": "[3]; 1.56 mg/kg i.p., P < 0.01", "result": "23.6 ± 9.2", "unit": "days"}]}]}
